Where a name gives a salt, the structure may show the parent alone. Read-outs that look alike come from different tables or passages of the source.
Columns and labels:
[1] = tested on: R. sanguineus tick larvae; settings: for Repellence Median (Q1-Q3) [%] / Knockdown Median (Q1-Q3) [%]: pure compound; for Repellence Median (Q1-Q3) [%]: median of replicates; for Knockdown Median (Q1-Q3) [%]: motility reduction over 9 min; for Knockdown Minimum effective concentration / Repellence Minimum effective concentration: smallest concentration with median activity above 50% significance limit
Protocol: FIG. 1 Schematic representation of the tick repellent test. 30-60 tick larvae are deposited in the non-treated area of a circular arena (8.96 cm^2) whereby one quadrant of the surface (2.25 cm^2) is treated. After 1 minute, the distribution of ticks in the treated and untreated areas is measured for a duration of 2 minutes. The repellent/deterrent effect is expressed in %: 100% means that ticks completely avoided the treated surface. Toxicity is measured in the same setup over a duration of 8 minutes and the mortality is expressed in % motility reduction between the beginning and the end of the 8 minutes. Dosages are expressed as a quantity (mg or molarity) per surface unit (m^2), as the compound or extract is deposited at the bottom of the well. Pure compounds: dose given in micromoles/m^2; Extracts: dose given in micrograms/m^2. Tests were run in triplicates.
The assay is used to evaluate the repellent/deterrent potential of a test compound or extract. The test includes a preliminary assessment of knockdown efficacy as a secondary endpoint. Knockdown can be defined as a state of intoxication and paralysis that usually precedes death (Wickham et al. (1974) Pesticide Science 5(5): 657-664). The test relies on the questing behavior of ticks that explore their habitat to find a suitable host hunting site and their propensity to avoid areas treated with repellent or irritating substances. Tick knockdown is expressed as a reduction in total motility over a defined period of time, and not by collecting and counting the number of dead and live ticks at the end of the exposure period.
Plant extracts or synthetic pure alkaloids diluted in methanol (extracts) or ethanol (alkaloids) were deposited on the bottom of wells in a six-well plate. Only one quadrant ([…]) of the bottom surface of each well was treated. The solvent was left to evaporate. The final concentration of the plant extracts was, therefore, expressed in mg/m^2, or in micromoles per square meter (μmol/m^2) for the synthetic alkaloids. Final concentrations applied for plant extracts were 893 (R. sanguineus adults only), 446, 141, 44.6, 14.1, and 4.46 mg/m^2, and 300, 100, 30, 10, and 3 μmol/m^2 for pure alkaloids. Approximately 50 R. sanguineus tick larvae, and exactly 5 R. sanguineus adults, or 5 I. ricinus nymphs were added to the untreated area of each well. Positive (DEET, commercial tick repellent) and negative (methanol or ethanol) controls were evaluated in parallel. Each concentration tested was run in three or more test replicates. After a 1-min incubation on a heating plate, the frequency of tick movement in the treated quadrant and in each of the untreated quadrants was recorded by machine vision. Tick movement on the untreated surface was computed as the median of movement on the three untreated quadrants. To estimate deterrence recordings were performed over a period of 2 min for R. sanguineus larvae, and for 3 minutes for R. sanguineus adults and I. ricinus nymphs, after the 1-min pre-exposure period. To assess knockdown effect, recording was extended to 9 min (starting at the 1-min pre-exposure period and lasting an additional 8 minutes).
Deterrence activity was calculated as follows: Percent deterrence=1−(movements on treated area/movements on untreated area)×100.
A difference of 50% between total movements recorded in the treated area versus movements recorded in the untreated area was considered significant.
The tick knockdown effect was calculated similarly: Percent knockdown=1−(movements at the end of the imaging period/movements at the beginning of the imaging period)×100.
A difference of 50% between total movements recorded during the 1 min pre-exposure and total movements measured at 9 min of recording was considered significant.

[2] = tested on: adult Aedes aegypti mosquitoes; test: Mosquito repellency assay (landings and time on warm treated surface); format: in vivo; settings: for Mean probing time [%, compared to control]: 100% = same time as on vehicle-treated surface; for Repellency, % reduction in landings vs vehicle control: repellency as percentage reduction of control, 100% = no landings
Protocol: The compound of the invention is mixed with ethanol to make a composition that can be applied to a surface and allowed to dry. After the surface is treated with the compounds of the invention and dried, it is heated to human body temperature, and the number of landings and the total time spent by the mosquitoes on the warm surface by adult Aedes aegypti mosquitoes is recorded automatically by machine vision to measure repellency of each compound.
Repellency (based on the number of individual landings on the warm surface) is expressed as a percentage reduction of the control, where the average number of mosquitoes landing on a warm surface treated only with the vehicle solvent is counted. 100% means no mosquitoes landed on the warm surface.
For mosquitoes that still landed on the warm surface, the time spent on the warm surface is also recorded and expressed as a percentage of the control, corresponding to the average time that mosquitoes spent on the same warm surface when treated only with the vehicle solvent. 100% mean that the mosquitoes spent the same time on the treated warm surface as on a warm surface treated only with the vehicle solvent.
Each compound/dose is tested in triplicate using a surface of 18.9 cm2 and 100 microliters of solution without the compound (the placebo) or with the compound dilution spread on the surface, and allowed to dry before the test. The average and standard error on triplicates is calculated. The control (using only vehicle solvent) is run with ethanol. The same population of mosquitoes is exposed first to the warm surface treated with the vehicle solvent, then to the surface treated with the compound. The concentration of the solution comprising the test compound was adjusted to ensure the treatment dosage of the compound is according to the final concentration per surface units area in the table.

[3] = Table 5, N = 3 subset of Table 4
[4] = Table 5, N = 3 subset of Table 4, dose 30
[5] = Table 5, N = 3 subset of Table 4, dose 300
[6] = concentration 10 μmol/m^2, dihydrochloride
[7] = concentration 30 μmol/m^2, dihydrochloride
[8] = concentration 100 μmol/m^2, dihydrochloride
[9] = dose 380 μmol/m^2, listed as S enantiomer HCl salt, dihydrochloride

C1=CC[C@H](c2cccnc2)NC1 [(R)-anatabine dihydrochloride]
MEC (μmol/m^2) [1, 3]: 30 μmol/m^2
% repellency ([1]; Table 5, N = 3 subset of Table 4, dose 3): 0%
% repellency [1, 4]: 62%
% mortality [1, 5]: 24%
% repellency [1, 5]: 97%
Repellence Median (Q1-Q3) [%] ([1]; concentration 3 μmol/m^2): 20.8%
Knockdown Median (Q1-Q3) [%] ([1]; concentration 3 μmol/m^2): 0%
Repellence Median (Q1-Q3) [%] [1, 6]: 34.4%
Repellence Median (Q1-Q3) [%] ([1]; concentration 10 μmol/m^2, listed as (R)-anatabine, dihydrochloride): 34%
Knockdown Median (Q1-Q3) [%] ([1]; concentration 10 μmol/m^2): 7.5%
Repellence Median (Q1-Q3) [%] [1, 7]: 62.0%
Repellence Median (Q1-Q3) [%] ([1]; concentration 30 μmol/m^2, listed as (R)-anatabine, dihydrochloride): 62%
Knockdown Median (Q1-Q3) [%] ([1]; concentration 30 μmol/m^2): 11.1%
Repellence Median (Q1-Q3) [%] [1, 8]: 84.3%
Repellence Median (Q1-Q3) [%] ([1]; concentration 100 μmol/m^2, listed as (R)-anatabine, dihydrochloride): 84%
Knockdown Median (Q1-Q3) [%] [1, 8]: 54.5%
Repellence Median (Q1-Q3) [%] ([1]; concentration 300 μmol/m^2): 88.3%
Knockdown Median (Q1-Q3) [%] ([1]; concentration 300 μmol/m^2, dihydrochloride): 52.7%
Knockdown Minimum effective concentration [1]: 100 μmol/m^2
Repellence Minimum effective concentration ([1]; dihydrochloride): 30 μmol/m^2
Mean probing time [%, compared to control] ([2]; dose 380 μmol/m^2): 128.9%
Repellency, % reduction in landings vs vehicle control ([2]; dose 380 μmol/m^2): 8.1%
Mean probing time [%, compared to control] ([2]; dose 760 μmol/m^2): 48.5%
Repellency, % reduction in landings vs vehicle control ([2]; dose 760 μmol/m^2): 42.9%

C1=CC[C@@H](c2cccnc2)NC1 [(S)-anatabine dihydrochloride]
MEC (μmol/m^2) [1, 3]: 300 μmol/m^2
% repellency [1, 4]: 12%
% repellency [1, 5]: 78%
Repellence Median (Q1-Q3) [%] ([1]; concentration 3 μmol/m^2): 38.4%
Knockdown Median (Q1-Q3) [%] ([1]; concentration 3 μmol/m^2): 0%
Repellence Median (Q1-Q3) [%] [1, 6]: 38.1%
Repellence Median (Q1-Q3) [%] ([1]; concentration 10 μmol/m^2, listed as (S)-anatabine, dihydrochloride): 38%
Knockdown Median (Q1-Q3) [%] ([1]; concentration 10 μmol/m^2): 4.2%
Repellence Median (Q1-Q3) [%] [1, 7]: 54.4%
Repellence Median (Q1-Q3) [%] ([1]; concentration 30 μmol/m^2, listed as (S)-anatabine, dihydrochloride): 54%
Knockdown Median (Q1-Q3) [%] ([1]; concentration 30 μmol/m^2): 14.7%
Repellence Median (Q1-Q3) [%] [1, 8]: 86.2%
Repellence Median (Q1-Q3) [%] ([1]; concentration 100 μmol/m^2, listed as (S)-anatabine, dihydrochloride): 86%
Knockdown Median (Q1-Q3) [%] ([1]; concentration 100 μmol/m^2): 23.8%
Repellence Median (Q1-Q3) [%] ([1]; concentration 300 μmol/m^2): 79.8%
Knockdown Median (Q1-Q3) [%] ([1]; concentration 300 μmol/m^2): 14.2%
Knockdown Minimum effective concentration [1]: >300 μmol/m^2
Repellence Minimum effective concentration ([1]; dihydrochloride): 30 μmol/m^2
Mean probing time [%, compared to control] [2, 9]: 71.5%
Repellency, % reduction in landings vs vehicle control [2, 9]: 25.4%
Mean probing time [%, compared to control] ([2]; dose 760 μmol/m^2): 62.7%
Repellency, % reduction in landings vs vehicle control ([2]; dose 760 μmol/m^2): 28.2%
